From paper PMC8391575, “Identification of Novel Cathepsin B Inhibitors with Implications in Alzheimer’s Disease: Computational Refining and Biochemical Evaluation” (Cells, 2021) come the findings set out here.

The target of this experiment is T1, human cathepsin B (Homo sapiens, UniProt P07858).
T1 construct: purchased ab185438
Description: Cathepsin B inhibitory assay, fluorometric kit (ab185438), AFC substrate. Format: biochemical. To be noted: 10 µM. The method, then:
Cathepsin B inhibitory assay was performed using a fluorometric-based assay kit as per company instructions (ab185438). The assay kit utilizes the ability of cathepsin B to cleave synthetic AFC (7-Amino-4-trifluoromethyl coumarin) substrate to freely release AFC; moreover, this AFC can be quantified by a fluorometer. In the presence of cathepsin B inhibitors, the cleavage of the substrate was reduced, and there was a decrease in the total loss of the AFC fluorescence. The experiments were performed in triplicate. The test compounds (virtual screened hits) were prepared in different concentrations of 2.5, 5.0, 10.0, 15.0, and 20.0 µM. […] Next, fluorescence was measured in a kinetic mode for 30–60 min at 37 °C (Ex/Em = 400/505). Two timepoints were used—0 and 15 min (ΔT = T2 − T1)—and corresponding values for the fluorescence (ΔRFU = RFU2-RFU1) were used to calculate the slope for all test inhibitor samples and EC, by dividing the net ΔRFU values by the time ΔT. The percentage of relative inhibition was calculated using the following formula: % Relative Inhibition=Slope of EC−Slope of Sample /Slope of EC×100

For F-F-FMK, the relative inhibition is 69.67%.
